Experimental data taken from patent publication US7927821B2, “Methods of screening for compounds which bind G protein-coupled receptors” (Takeda Pharmaceutical Company Limited, priority 2004, dated 2011).

Tests used:
TGR25 = TGR25 (Homo sapiens, UniProt Q86Y34); experiment: SRE-luciferase reporter assay in HeLa cells transiently expressing TGR25; assay type: cell-based; settings: for luciferase activity in the TGR25-expressed cells (in words): 20 μM
HL-60 = experiment: Differentiation of HL-60 cell line into neutrophil-like cells (CD11b/Mac-1, flow cytometry); assay type: cell-based, human; settings: co-presence of 1.25% DMSO and AM251 (10 μM), 4 days
From the text: Human leukocyte cell line (human acute promyelocytic leukemia cell-derived) HL-60 is known to differentiate into neutrophil-like cells by treatment with DMSO (dimethyl sulfoxide) (Blood, 70, 1233-1244 (1987)). Gene expression analysis based on EXAMPLE 3 confirmed the expression of the TGR25 in the cell line. Accordingly, the action of AM251 as an agonist of the TGR25 for differentiation of the cells was examined.
After HL-60 cells in the growth phase were suspended in 10% fetal calf serum-containing RPMI 1640 medium, the cells were plated on a 12-well tissue culture plate (Becton Dickinson Japan) in 5×10^4 cells/well. […] Degree of cell differentiation was analyzed using a fluorescence-labeled antibody (PE-anti-human CD11b/Mac-1, Becton Dickinson Japan) on a flow cytometry (BD FACSVantage™, Becton Dickinson Japan), in terms of the expression level of a differentiation marker or cell surface antigen CD11b/Mac-1 as an indicator.

[1] = test system: pAKKO-111H-transfected cells (control); experiment: SRE-luciferase reporter assay in pAKKO-111H-transfected HeLa cells for control (no receptor); settings: 2 μM

Sequence of TGR25 (Q86Y34 21-549): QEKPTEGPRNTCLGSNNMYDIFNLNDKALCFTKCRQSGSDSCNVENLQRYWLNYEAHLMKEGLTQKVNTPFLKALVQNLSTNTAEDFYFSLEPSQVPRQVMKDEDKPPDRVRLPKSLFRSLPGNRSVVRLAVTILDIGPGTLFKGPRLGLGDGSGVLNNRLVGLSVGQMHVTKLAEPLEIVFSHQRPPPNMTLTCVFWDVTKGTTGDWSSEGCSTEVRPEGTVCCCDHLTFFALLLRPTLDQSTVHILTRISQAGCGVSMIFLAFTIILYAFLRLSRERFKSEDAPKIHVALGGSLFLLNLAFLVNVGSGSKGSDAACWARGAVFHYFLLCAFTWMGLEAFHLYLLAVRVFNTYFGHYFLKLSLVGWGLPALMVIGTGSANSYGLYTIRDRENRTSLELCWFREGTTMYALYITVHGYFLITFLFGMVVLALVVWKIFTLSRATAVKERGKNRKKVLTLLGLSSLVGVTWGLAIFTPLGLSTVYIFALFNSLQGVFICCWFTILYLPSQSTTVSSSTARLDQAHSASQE

Compound	luciferase activity in the TGR25-expressed cells (in words) (TGR25)	Increase of Luciferase Activity in TGR25-Expressed Cells by AM281 (cps): TGR25 (TGR25; AM281 20 μM, 4 hours, HeLa cells, 0 μM gave 6113) [cps]	Increase of Luciferase Activity in TGR25-Expressed Cells by DH97 (cps): TGR25 (TGR25; DH97 20 μM, 4 hours, HeLa cells, 0 μM gave 2642) [cps]	luciferase activity in the TGR25 expression cells (in words) (TGR25; 2 μM)	Increased luciferase activity (cps) in the TGR25 expression cells by AM251: TGR25 (TGR25; AM251 2 μM, 4 hours, HeLa cells, 0 μM gave 7527) [cps]	differentiation of HL-60 into neutrophil-like cells (HL-60)	expression level of CD11b/Mac-1 (differentiation marker) (HL-60; versus DMSO alone)	luciferase activity in the pAKKO-111H-transfected cells for control (in words) [1]
Cc1c(C(=O)NN2CCOCC2)nn(-c2ccc(Cl)cc2Cl)c1-c1ccc(I)cc1 [AM281, 1-(2,4-dichlorophenyl)-5-(4-iodophenyl)-4-methyl-N-morpholin-4-yl-1H-pyrazole-3-carboxamide]	the luciferase activity increased	9279	–	–	–	–	–	–
CCCCC(=O)NCCc1c(Cc2ccccc2)[nH]c2ccccc12 [DH97, N-[2-(2-benzyl-1H-indol-3-yl)ethyl]pentanamide]	the luciferase activity increased	–	5674	–	–	–	–	–
Cc1c(C(=O)NN2CCCCC2)nn(-c2ccc(Cl)cc2Cl)c1-c1ccc(I)cc1 [AM251, 1-(2,4-dichlorophenyl)-5-(4-iodophenyl)-4-methyl-N-piperidin-1-yl-1H-pyrazole-3-carboxamide]	–	–	–	increased luciferase activity was detected	17897	acts promotively	further increased	any significant increase in the activity was not detected
